Calls of active or inactive are those of the source. The calls are words filed in the database; no cut-off is given here.
Tests used:
PC-3 [1] = experiment: Induction of apoptosis in human PC-3 cells assessed as necrotic cells at 0.32 uM incubated for 24 hrs by Annexin V-FITC and PI staining based flow cytometry (reference value: 0.13%); type: functional
PC-3 [2] = experiment: Induction of cell cycle arrest in human PC-3 cells assessed as G2/M phase cells at 0.16 uM incubated for 24 hrs by PI staining based flow cytometry analysis (reference value: 12.83%); type: functional
PC-3 [3] = experiment: Induction of apoptosis in human PC-3 cells assessed as necrotic cells at 0.16 uM incubated for 24 hrs by Annexin V-FITC and PI staining based flow cytometry (reference value: 0.13%); type: functional
PC-3 [4] = experiment: Induction of apoptosis in human PC-3 cells assessed as downregulation of Bim expression at 0.08 to 0.32 uM by Western blotting analysis; type: functional, cell-based; conditions: dose 0.08-0.32 µM
PC-3 [5] = experiment: Induction of cell cycle arrest in human PC-3 cells assessed as G2/M phase cells at 0.32 uM incubated for 24 hrs by PI staining based flow cytometry analysis (reference value: 12.83%); type: functional
Tubulin = experiment: (§1) Inhibition of tubulin polymerization (unknown origin) measured after 60 mins by fluorescence based assay; type: protein-complex assay, Homo sapiens
Tubulin (Homo sapiens) [6] = molecular target: T1, Tubulin (Homo sapiens) (UniProt P68371+Q9H4B7+P0DPH7+P68366+Q13509+Q71U36+P04350+Q3ZCM7+P07437+P68363+Q9BQE3+Q6PEY2+Q13885+Q9BVA1+Q9BUF5); experiment: as §1; type: protein-complex assay
PC-3 [7] = experiment: Induction of cell cycle arrest in human PC-3 cells assessed as G1 phase cells at 0.32 uM incubated for 24 hrs by PI staining based flow cytometry analysis (reference value: 56.17%); type: functional
Histone deacetylase 1 = Histone deacetylase 1 (Homo sapiens, UniProt Q13547); experiment: Inhibition of HDAC1 in human HeLa nuclear extracts incubated for 30 mins by fluorescence based assay; type: cell-free
PC-3 [8] = experiment: Induction of apoptosis in human PC-3 cells assessed as late apoptotic cells at 0.32 uM incubated for 24 hrs by Annexin V-FITC and PI staining based flow cytometry (reference value: 1.02%); type: functional
[9] = Volume of distribution at steady state in Sprague-Dawley rat at 2 mg/kg, iv measured upto 24 hrs by HPLC-MS analysis; type: ADME, organism-based; conditions: in vivo, read-out: Vdss
PC-3 [10] = experiment: Induction of cell cycle arrest in human PC-3 cells assessed as decrease in phosphorylated Cdc25c at Ser216 by Western blotting analysis; type: functional, cell-based; conditions: dose 0.08-0.32 µM
PC-3 [11] = experiment: Induction of cell cycle arrest in human PC-3 cells assessed as G1 phase cells at 0.16 uM incubated for 24 hrs by PI staining based flow cytometry analysis (reference value: 56.17%); type: functional
[12] = Clearance in Sprague-Dawley rat at 2 mg/kg, iv measured upto 24 hrs by HPLC-MS analysis; type: ADME, organism-based; conditions: in vivo
PC-3 [13] = experiment: Inhibition of colony formation in human PC-3 cells at 40 nM incubated for 24 hrs followed by replacement with fresh media and measured after 2 weeks by crystal violet staining based assay; type: functional
PC-3 [14] = experiment: Induction of mitochondrial membrane potential loss in human PC-3 cells assessed as increase in monomer JC-1 level by measuring green fluorescence intensity at 0.32 uM incubated for 24 hrs by JC-1 staining based flow cytometry analysis (reference value: 6.44%); type: functional
PC-3 [15] = experiment: Antitumor activity against human PC-3 cells xenografted in BALB/c nude mouse assessed as tumor growth inhibition at 20 mg/kg, iv administered every 2 days and measured after 3 weeks; type: functional; conditions: PC-3, 48 h, time 2 day, read-out: TGI
PC-3 [16] = experiment: Induction of apoptosis in human PC-3 cells assessed as early apoptotic cells at 0.32 uM incubated for 24 hrs by Annexin V-FITC and PI staining based flow cytometry (reference value: 1.32%); type: functional
Tubulin (Homo sapiens) [17] = molecular target: T1, Tubulin (Homo sapiens); experiment: Binding affinity to tubulin colchicine binding site in human PC-3 cells assessed as reduction in beta-tubulin adduct formation at 5 uM preincubated for 2 hrs followed by EBI addition and measured after 1.5 hrs by Western blotting assay; type: cell-based; parameters: scale not given: the % may be the effect or the level left; conditions: time 3.5 hrs
A549 = experiment: Cytotoxicity against human A549 cells incubated for 72 hrs by MTT assay; conditions: A549, 72 h
PC-3 [18] = experiment: Induction of apoptosis in human PC-3 cells assessed as early apoptotic cells at 0.08 uM incubated for 24 hrs by Annexin V-FITC and PI staining based flow cytometry (reference value: 1.32%); type: functional
PC-3 [19] = experiment: Induction of mitochondrial membrane potential loss in human PC-3 cells assessed as increase in monomer JC-1 level by measuring green fluorescence intensity at 0.16 uM incubated for 24 hrs by JC-1 staining based flow cytometry analysis (reference value: 6.44%); type: functional
PC-3 [20] = experiment: Induction of apoptosis in human PC-3 cells assessed as viable cells at 0.08 uM incubated for 24 hrs by Annexin V-FITC and PI staining based flow cytometry (reference value: 97.5%); type: functional; conditions: read-out: Activity
PC-3 [21] = experiment: Induction of apoptosis in human PC-3 cells assessed as downregulation of Bcl-2 expression at 0.08 to 0.32 uM by Western blotting analysis; type: functional, cell-based; conditions: dose 0.08-0.32 µM
MCF7 = experiment: Cytotoxicity against human MCF7 cells incubated for 72 hrs by MTT assay; conditions: MCF7, 72 h
PC-3 [22] = experiment: Induction of ROS generation in human PC-3 cells at 0.32 uM incubated for 24 hrs by DCFH-DA staining based flow cytometry analysis (reference value: 2.63%); type: functional

Sequence of Histone deacetylase 1 (Q13547 whole entry): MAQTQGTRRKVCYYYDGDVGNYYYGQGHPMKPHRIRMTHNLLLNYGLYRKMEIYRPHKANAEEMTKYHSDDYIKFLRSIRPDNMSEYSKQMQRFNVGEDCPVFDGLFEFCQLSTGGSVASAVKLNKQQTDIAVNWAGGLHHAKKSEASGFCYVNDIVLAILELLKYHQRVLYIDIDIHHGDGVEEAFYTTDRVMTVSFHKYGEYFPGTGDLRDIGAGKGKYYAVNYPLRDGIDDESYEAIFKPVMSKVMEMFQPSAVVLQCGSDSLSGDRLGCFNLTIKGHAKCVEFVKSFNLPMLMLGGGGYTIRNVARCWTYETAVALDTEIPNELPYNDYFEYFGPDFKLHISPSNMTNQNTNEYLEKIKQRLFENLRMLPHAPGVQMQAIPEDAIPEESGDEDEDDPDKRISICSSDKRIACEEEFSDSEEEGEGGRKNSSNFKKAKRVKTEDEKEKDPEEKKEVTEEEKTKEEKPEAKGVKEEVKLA

COc1ccc(/C=C/C(=O)c2ccc(OC)c3c2OC(C)(C)C=C3)cc1NCC(=O)NO
Activity (PC-3 [1]): 0.19%
Activity (PC-3 [2]): 50.56%
Activity (PC-3 [3]): 0.47%
Activity (PC-3 [4]): Active
Activity (PC-3 [5]): 82.04%
IC50 (Tubulin): 4820 nM
inhibition (Tubulin (Homo sapiens) [6]): Dose-Dependent Effect
Activity (PC-3 [7]): 6%
IC50 (Histone deacetylase 1): 730 nM
Activity (PC-3 [8]): 8.39%
Vd [9]: 0.42 L/kg
Activity (PC-3 [10]): Active
Activity (PC-3 [11]): 18.7%
clearance [12]: 5 mL/min/kg
inhibition at 0.04 µM (PC-3 [13]): 100%
Activity (PC-3 [14]): 38.8%
inhibition in vivo at 20 mg/kg (PC-3 [15]): 90.1%
Activity (PC-3 [16]): 63.8%
Activity (Tubulin (Homo sapiens) [17]): 100%
IC50 (A549): 290 nM
Activity (PC-3 [18]): 2.52%
Activity (PC-3 [19]): 20.7%
viability at 0.08 µM (PC-3 [20]): 94.8%
Activity (PC-3 [21]): Active
IC50 (MCF7): 160 nM
Activity (PC-3 [22]): 83.1%
